# Assays:
# SFTSV = test: microbe, parasite or virus in culture; type: cell-based, severe fever with thrombocytopenia syndrome virus; conditions: for EC50: Severe fever with thrombocytopenia syndrome virus, Vero, 72 h, read-out: EC50 (50% effective concentration), anti-SFTSV activity
# in vitro = conditions: monkey
Structure (SMILES),"anti-SFTSV activity (intracellular SFTSV RNA level), in words (SFTSV)",EC50 (SFTSV),CC50 (in vitro),viability of mock-infected Vero cells (Vero cells)
"CCN(CC)Cc1cc(Nc2ccnc3cc(Cl)ccc23)ccc1O [Compound 1, 4-(7-Chloroquinolin-4-ylamino)-2-diethylaminomethylphenol]",selective inhibitor of SFTSV replication,19.1 ± 5.1 µM,> 100 µM,
"CCN(CC)Cc1cc(Nc2ccnc3cc(F)ccc23)ccc1O [Compound 2, 4-(7-Fluoroquinolin-4-ylamino)-2-diethylaminomethylphenol]",,36.6 ± 9.3 µM,> 100 µM,
"CCN(CC)Cc1cc(Nc2ccnc3cc(Br)ccc23)ccc1O [Compound 3, 4-(7-Bromoquinolin-4-ylamino)-2-diethylaminomethylphenol]",,31.1 ± 16.8 µM,> 100 µM,
"CCN(CC)Cc1cc(Nc2ccnc3cc(I)ccc23)ccc1O [Compound 4, 4-(7-Iodoquinolin-4-ylamino)-2-diethylaminomethylphenol]",,15.6 ± 4.9 µM,> 100 µM,
NC(=O)c1nc(F)c[nH]c1=O [Favipiravir],reduced the intracellular SFTSV RNA level in a dose-dependent manner,25 ± 9.3 µM,> 100 µM,did not reduce the viability
NC(=O)c1ncn([C@@H]2O[C@H](CO)[C@@H](O)[C@H]2O)n1 [Ribavirin],reduced the intracellular SFTSV RNA level in a dose-dependent manner,40.1 ± 16.3 µM,> 100 µM,did not reduce the viability
